A word on the melting point: it is the temperature, or range, at which the solid turns liquid.

Tested on in one data set: not given
Assay: not given
Details: not given
As for `Clc1ccc(Nc2cncc(-n3cccn3)n2)cc1` [Compound 3, (4-Chloro-phenyl)-(6-pyrazol-1-yl-pyrazin-2-yl)-amine], the melting point was 155 to 157 °C.
`Clc1ccc(Nc2cncc(-n3cc4ccccc4n3)n2)cc1` [Compound 3.1, (4-Chloro-phenyl)-(6-indazol-2-yl-pyrazin-2-yl)-amine] displayed a melting point of 249 to 252 °C.
For the compound `Clc1ccc(Nc2cncc(-n3ncc4ccccc43)n2)cc1` [Compound 3.2, (4-Chloro-phenyl)-(6-indazol-1-yl-pyrazin-2-yl)-amine], the melting point lay in the range of 204 to 207 °C.
On to `Cc1cc(C)n(-c2cncc(Nc3ccc(Cl)cc3)n2)n1` [Compound 4, (4-Chloro-phenyl)-[6-(3,5-dimethyl-pyrazol-1-yl)-pyrazin-2-yl]-amine], for which the melting point was 157 to 158.9 °C.
As to `Cc1cccc(-c2cncc(Nc3ccc(Cl)cc3)n2)n1` [Compound 8.1, (4-Chloro-phenyl)-[6-(6-methyl-pyridin-2-yl)-pyrazin-2-yl]-amine], the melting point is 186 to 188 °C.
Compound `Cc1cc(C)n(-c2cnc(CN(C)C)c(Nc3ccc(Cl)cc3)n2)n1` [Compound 14.1, (4-Chloro-phenyl)-[3-dimethylaminomethyl-6-(3,5-dimethyl-pyrazol-1-yl)-pyrazin-2-yl]-amine] registered a melting point of 112 to 114 °C.
The compound `COCc1ncc(-n2nc(C)cc2C)nc1Nc1ccc(Cl)cc1` [Compound 16.1, (4-Chloro-phenyl)-[6-(3,5-dimethyl-pyrazol-1-yl)-3-methoxymethyl-pyrazin-2-yl]-amine] returned a melting point of 105 to 108 °C.
Compound `COCc1ncc(Nc2ccc(Cl)cc2)nc1-n1nc(C)cc1C` [Compound 17.1] showed a melting point of 147 to 151 °C.
In the case of `Cc1cc(C)n(-c2cnc(/C=N/O)c(Nc3ccc(Cl)cc3)n2)n1` [Compound 20.1, 3-(4-Chloro-phenylamino)-5-(3,5-dimethyl-pyrazol-1-yl) -pyrazine-2-carbaldehyde oxime], the melting point lay within 228 to 231 °C.
For the compound `Cc1cc(C)n(-c2cnc(CN)c(Nc3ccc(Cl)cc3)n2)n1` [Compound 21.1, [3-Aminomethyl-6-(3,5-dimethyl-pyrazol-1-yl)-pyrazin-2-yl]-(4-chloro-phenyl)-amine], the melting point was 156 to 160 °C.
`CC(=O)NCc1ncc(-n2nc(C)cc2C)nc1Nc1ccc(Cl)cc1` [Compound 22.1, N-[3-(4-Chloro-phenylamino)-5-(3,5-dimethyl-pyrazol-1-yl)-pyrazin-2-ylmethyl]-acetamide] returned a melting point of 228 to 230 °C.
Consider `CCNc1ncc(Nc2ccc(Cl)cc2)nc1-n1nc(C)cc1C` [Compound 27.2, 5-(4-Chloro-phenylamino)-3-(3,5-dimethyl-pyrazol-1-yl)-2-ethylamino-pyrazine], for which the melting point lay within 122 to 124 °C.

The next data set deals with T1, hSK3 channels (Homo sapiens, UniProt Q9UGI6).
T1 construct: expressed in transfected cells; host or cells: HEK293
Kind of data set: Whole-cell patch-clamp recording of ionic current through SK channels (subtype 3) in HEK293 cells expressing hSK3. The conditions noted are these: Stimulating Concentration required for increasing the baseline current by 100%, current at -75 mV, free Ca2+ 0.3-0.4 μM, room temperature. It is filed as cell-based. The protocol:
The ionic current through small-conductance Ca^2+-activated K^+ channels (SK channels, subtype 3) is recorded using the whole-cell configuration of the patch-clamp technique.
HEK293 tissue culture cells expressing hSK3 channels were grown in DMEM (Dulbecco's Modified Eagle Medium) supplemented with 10% FCS (foetal calf serum) at 37° C. in 5% CO2. At 60-80% confluency, cells were harvested by trypsin treatment and seeded on cover slips.
Experiments are carried out on one of several patch-clamp set-ups. Cells plated on coverslips are placed in a 15 μl perfusion chamber (flowrate ˜1 ml/min) mounted on an IMT-2 microscope. The microscopes are placed on vibration-free tables in grounded Faraday cages. All experiments are performed at room temperature (20-22° C.). EPC-9 patch-clamp amplifiers (HEKA-electronics, Lambrect, Germany) are connected to Macintosh computers via ITC16 interfaces. Data are stored directly on the hard-disk and analysed by IGOR software (Wavemetrics, Lake Oswega, Oreg., USA).
The whole-cell configuration of the patch-clamp technique is applied. In short: The tip of a borosilicate pipette (resistance 2-4 MΩ) is gently placed on the cell membrane using remote control systems. Light suction results in the formation of a giga seal (pipette resistance increases to more than 1 GΩ) and the cell membrane underneath the pipette is then ruptured by more powerful suction. Cell capacitance is electronically compensated and the resistance between the pipette and the cell interior (the series resistance, Rs) is measured and compensated for. […]
The intracellular (pipette) solution contained: 154 mM KCl, 10 mM HEPES, 10 mM EGTA. Concentrations of CaCl2 and MgCl2 needed to obtain the desired free concentrations of Ca^2+ (0.3-0.4 μM, Mg^2+ always 1 mM) were calculated by EqCal software (Cambridge, UK) and added.
After establishment of the whole-cell configuration, voltage-ramps (normally −80 to +80 mV) are applied to the cell every 5 seconds from a holding potential of 0 mV. […] Active compounds are quantified by calculating the change in baseline current at −75 mV. […]
As for `Cc1cc(C)n(-c2cncc(Nc3ccc(Cl)cc3)n2)n1` [Compound 4, (4-Chloro-phenyl)-[6-(3,5-dimethyl-pyrazol-1-yl)-pyrazin-2-yl]-amine], the SC100 was found to be 0.25 µM.
Take `Clc1ccc(Nc2cncc(-c3nccs3)n2)cc1` [Compound 8.4, (4-Chloro-phenyl)-(6-thiazol-2-yl-pyrazin-2-yl)-amine]: the SC100 stood at 0.30 µM.
`Cc1cc(C)n(-c2cnc(/C=N/O)c(Nc3ccc(Cl)cc3)n2)n1` [Compound 20.1, 3-(4-Chloro-phenylamino)-5-(3,5-dimethyl-pyrazol-1-yl) -pyrazine-2-carbaldehyde oxime]: the SC100 was 0.075 µM.
